How the values were obtained:
A₁ receptor = target: T1, A₁ receptor (Cavia porcellus, UniProt P47745); assay: Adenosine A₁ receptor binding test (³H-CHA binding); design: species or system guinea pig; settings: guinea pig cerebrum
T1 construct: from tissue; host or cells: guinea pig cerebrum membrane preparation
T1 sequence (P47745 1-326): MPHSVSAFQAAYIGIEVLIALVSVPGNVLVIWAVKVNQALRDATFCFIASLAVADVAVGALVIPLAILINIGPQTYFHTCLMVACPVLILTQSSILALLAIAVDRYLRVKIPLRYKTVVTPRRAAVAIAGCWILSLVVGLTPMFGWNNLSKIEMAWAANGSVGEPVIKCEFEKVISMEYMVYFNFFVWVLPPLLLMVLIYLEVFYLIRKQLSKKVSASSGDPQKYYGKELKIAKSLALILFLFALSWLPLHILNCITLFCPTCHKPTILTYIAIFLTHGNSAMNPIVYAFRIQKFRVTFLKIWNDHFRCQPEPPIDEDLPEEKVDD
Description: Cerebrum of a guinea pig was suspended in ice-cooled 50 mM Tris hydroxymethyl aminomethane hydrochloride (Tris HCl) buffer (pH 7.7) by using Polytron homogenizer (manufactured by […] Co.). […] The suspension was centrifuged under the same conditions, and the final precipitate was suspended once again in 50 mM Tris HCl buffer to give a tissue concentration of 100 mg (wet weight)/ml. The tissue suspension was incubated at 37°C for 30 minutes in the presence of 0.02 unit/mg tissue of adenosine deaminase (manufactured by Sigma Co.). The tissue suspension was then centrifuged (50,000 x g, 10 minutes), and 50 mM Tris HCl buffer was added to the precipitate to adjust the concentration of tissue to 10 mg (wet weight)/ml. […] The mixture solution was allowed to stand at 25°C for 90 minutes and then rapidly filtered by suction through a glass fiber filter (GF/C manufactured by Whatman Co.). […] The radioactivity on the filter was determined with a liquid scintillation counter (manufactured by Packard Instrument Co.). […] The inhibition constant (Ki value) shown in the table was calculated by the Cheng-Prusoff's equation.

A₂ receptor [1] = target: T2, A₂ receptor (Rattus norvegicus, UniProt P30543); assay: Adenosine A₂ receptor binding test (³H-NECA binding)
T2 construct: from tissue; host or cells: rat corpus striatum membrane preparation
T2 sequence (P30543 whole entry): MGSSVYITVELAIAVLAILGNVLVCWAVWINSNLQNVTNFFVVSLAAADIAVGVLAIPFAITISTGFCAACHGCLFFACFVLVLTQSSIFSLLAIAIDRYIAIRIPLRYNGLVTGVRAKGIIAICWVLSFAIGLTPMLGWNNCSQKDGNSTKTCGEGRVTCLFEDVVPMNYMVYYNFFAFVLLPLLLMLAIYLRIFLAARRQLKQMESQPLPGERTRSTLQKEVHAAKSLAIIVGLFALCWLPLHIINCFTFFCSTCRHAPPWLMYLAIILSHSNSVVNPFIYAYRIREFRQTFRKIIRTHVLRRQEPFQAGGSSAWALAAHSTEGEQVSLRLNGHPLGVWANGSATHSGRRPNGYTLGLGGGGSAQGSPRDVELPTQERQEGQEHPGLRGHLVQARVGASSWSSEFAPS
Description: (§1) The similar procedure as in the above-described adenosine A₁ receptor binding test was repeated using rat corpus striatum to obtain the final precipitate of the tissue thereof. The precipitate was suspended in 50 mM Tris HCl buffer containing 10 mM magnesium chloride and 0.02 unit/mg tissue of adenosine deaminase (manufactured by Sigma Co.) to give a tissue concentration of 5 mg (wet weight)/ml.
The mixture solution was allowed to stand at 25°C for 120 minutes and then treated in the same manner as in the adenosine A₁ receptor binding test to determine the radioactivity bound to the A₂ receptors.
The inhibition rate of the test compound against the binding of A₂ receptor (³H-NECA binding) was calculated by the following equation: [formula] [Notes] • 1.

dd-strain male mice = assay: Acute toxicity test (minimum lethal dose, oral); format: in vivo; settings: oral administration, three mice per group, mortality seven days after administration
Description: Test compounds were orally administered to groups of dd-strain male mice weighing 20 ± 1 g, each group consisting of three mice. Seven days after the administration, minimum lethal dose (MLD) of each compound was determined by observing the mortality.

A₂ receptor [2] = target: T2, A₂ receptor; assay: Adenosine A₂ receptor binding test (³H-CGS 21680 binding); settings: [^3H]CGS 21680 was used, rat corpus striatum, read-out: A2 Receptor Inhibition (%); for inhibition at 1 µM: 10^-6M; for inhibition at 0.1 µM: 10^-7M
Description: as §1
The similar procedure as above was repeated to determine the radioactivity bound to the A₂ receptors using 50 µl of CGS 21680 labeled with tritium [³H-2-[p-(2-carboxyethyl)-phenethylamino]-5'-(N-ethylcarboxamide)adenosine: 40 Ci/mmol, manufactured by New England Nuclear Co. (J. Pharmacol. Exp. Ther., 251, 888 (1989)] (final concentration: 4.0 nM) in place of 50 µl of the mixture of N-ethylcarboxamidoadenosine labeled with tritium (³H-NECA: 26 Ci/mmol, manufactured by Amersham Co.) (final concentration: 3.8 nM) and cyclopentyladenosine (CPA, manufactured by Sigma Co.) (final concentration: 50 nM).
The inhibition rate of the test compound against the binding of A₂ receptors (³H-CGS 21680 binding) was calculated by the following equation: [formula] [Notes] • 1. "B" means the amount of radioactivity of ³H-CGS 21680 bound in the presence of a test compound at a concentration shown in Table 4. • 2. "T" means the amount of radioactivity of ³H-CGS 21680 bound in the absence of a test compound. • 3. "N" means the amount of radioactivity of ³H-CGS 21680 bound in the presence of 100 µM CPA.

[3] = system: Haloperidol-Induced Catalepsy; assay: Effect on haloperidol-induced catalepsy; format: in vivo, mice; settings: 10 mg/kg orally; for Number of the Animals Showing Remission: of five mice, catalepsy score not more than 4 points; for Remission Rate (%): rate of decrease in total score based on control group; for Total Score: total catalepsy score of five mice (25 points at the full), haloperidol 1.0 mg/kg i.p.
Description: Haloperidol (Janssen Pharmaceutica) suspended in 0.3% CMC was intraperitoneally administered to each mouse at a dose of 1.0 mg/kg. Test compounds were suspended in 0.3% CMC or in injectable distilled water (Otsuka Pharmaceutical Co., Ltd.) containing Tween 80. L-DOPA (Kyowa Hakko Kogyo Co., Ltd.) and benserazide hydrochloride (Kyowa Hakko Kogyo Co., Ltd.) were suspended in 0.3% CMC. One hour after the haloperidol administration, the test compound suspensions and the control suspension [injectable distilled water (Otsuka Pharmaceutical Co., Ltd.) containing Tween 80] containing no test compound were orally administered to separate groups of the mice (0.1 ml per 10 g of body weight). One hour after the administration of the test compound, the forelimbs of each mouse and subsequently the hindlimbs of the same mouse were placed on a 4.5 cm-high, 1.0 cm-wide bar and catalepsy was estimated. […] The catalepsy score and the standard of judgment are shown below. […] The number of the animals showing remission against catalepsy is the number of the mice for which the catalepsy score was not more than 4 points. […] The ED₅₀ values were calculated by Probit analysis.

[4] = read-out: Inhibition (%) A₂ Receptor

Row | Compound | inhibition at 100 µM (A₁ receptor; 10⁻⁴M) [%] | inhibition at 10 µM (A₁ receptor; 10⁻⁵M) [%] | inhibition at 0.1 µM (A₂ receptor [1]; [4]) [%] | inhibition at 1 µM (A₂ receptor [1]; [4]) [%] | inhibition at 10 µM (A₂ receptor [1]; [4]) [%] | inhibition at 100 µM (A₂ receptor [1]; [4]) [%] | Ki (A₂ receptor [1]; ³H-NECA binding) [nM] | MLD (dd-strain male mice) [mg/kg] | inhibition at 1 µM (A₂ receptor [2]) [%] | inhibition at 0.1 µM (A₂ receptor [2]) [%] | Number of the Animals Showing Remission [3] | Remission Rate (%) [3] [%] | Total Score [3]
1 | CCn1c(=O)c2[nH]c(/C=C/c3ccc(OC)c(OC)c3)nc2n(CC)c1=O [Compound 1, (E)-8-(3,4-Dimethoxystyryl)-1,3-diethylxanthine] | 86 | 84 | 53 | 86 | 98 | 100 | 23 | > 300 |  |  |  |  | 
2 | CCn1c(=O)c2c(nc(/C=C/c3cccc(OC)c3)n2C)n(CC)c1=O [Compound 40, (E)-1,3-Diethyl-8-(3-methoxystyryl)-7-methylxanthine] |  |  |  |  |  |  |  | > 300 | 98 | 88 | 5 | 88 | 3
3 | CCn1c(=O)c2c(nc(/C=C/c3ccc(C)cc3)n2C)n(CC)c1=O [Compound 44, (E)-1,3-Diethyl-7-methyl-8-(4-methylstyryl)xanthine] |  |  |  |  |  |  |  | > 100 | 103 | 64 | 3 | 32 | 17
4 | CCn1c(=O)c2c(nc(/C=C/c3cccc(OC)c3[N+](=O)[O-])n2C)n(CC)c1=O [Compound 64, (E)-1,3-Diethyl-8-(3-methoxy-2-nitrostyryl)-7-methylxanthine] |  |  |  |  |  |  |  | > 100 | 94 | 89 | 4 | 36 | 16
5 | CCn1c(=O)c2c(nc(/C=C/c3ccc(Br)cc3)n2C)n(CC)c1=O [Compound 78, (E)-8-(4-Bromostyryl)-1,3-diethyl-7-methylxanthine] |  |  |  |  |  |  |  | > 100 | 89 | 68 | 3 | 28 | 18
6 | CCn1c(=O)c2c(nc(/C=C/c3ccc(OCOC)cc3)n2C)n(CC)c1=O [Compound 82, (E)-1,3-Diethyl-8-(4-methoxymethoxystyryl)-7-methylxanthine] |  |  |  |  |  |  |  | > 100 | 98 | 86 | 5 | 64 | 9
7 | CCn1c(=O)c2c(nc(/C=C/c3ccc(F)cc3)n2C)n(CC)c1=O [Compound 84, (E)-1,3-Diethyl-8-(4-fluorostyryl)-7-methylxanthine] |  |  |  |  |  |  |  | > 100 | 100 | 82 | 4 | 32 | 17
8 | CCn1c(=O)c2c(nc(/C=C/c3cc(C(F)(F)F)cc(C(F)(F)F)c3)n2C)n(CC)c1=O [Compound 86, (E)-8-[3,5-Bis(trifluoromethyl)styryl]-1,3-diethyl-7-methylxanthine] |  |  |  |  |  |  |  | > 100 | 73 | 29 | 3 | 36 | 16
9 | CCn1c(=O)c2c(nc(/C=C/c3cccc([N+](=O)[O-])c3)n2C)n(CC)c1=O [Compound 90, (E)-1,3-Diethyl-7-methyl-8-(3-nitrostyryl)xanthine] |  |  |  |  |  |  |  | > 100 | 94 | 85 | 4 | 44 | 14
10 | CCn1c(=O)c2c(nc(/C=C/c3cccc(Br)c3)n2C)n(CC)c1=O [Compound 92, (E)-8-(3-Bromostyryl)-1,3-diethyl-7-methylxanthine] |  |  |  |  |  |  |  | > 100 | 103 | 93 | 4 | 52 | 12
11 | CCn1c(=O)c2c(nc(/C=C/c3ccc(OC)c(F)c3)n2C)n(CC)c1=O [Compound 103, (E)-1,3-Diethyl-8-(3-fluoro-4-methoxystyryl)-7-methylxanthine] |  |  |  |  |  |  |  | > 100 | 102 | 75 | 3 | 36 | 16
12 | CCn1c(=O)c2c(nc(/C=C/c3cccc(F)c3C)n2C)n(CC)c1=O [Compound 109, (E)-1,3-Diethyl-8-(3-fluoro-2-methylstyryl)-7-methylxanthine] |  |  |  |  |  |  |  | > 100 | 96 | 97 | 5 | 84 | 4
13 | CCn1c(=O)c2c(nc(/C=C/c3ccc(O)c(O)c3)n2C)n(CC)c1=O [Compound 110, (E)-8-(3,4-Dihydroxystyryl)-1,3-diethyl-7-methylxanthine] |  |  |  |  |  |  |  | > 100 | 96 | 61 | 3 | 20 | 20
14 | CCn1c(=O)c2c(nc(/C=C/c3ccc(O)cc3)n2C)n(CC)c1=O [Compound 112, (E)-1,3-Diethyl-8-(4-hydroxystyryl)-7-methylxanthine] |  |  |  |  |  |  |  | > 100 | 95 | 79 | 5 | 84 | 4
15 | CCn1c(=O)c2c(nc(/C=C/c3ccc(OCc4ccccc4)cc3)n2C)n(CC)c1=O [Compound 113, (E)-8-(4-Benzyloxystyryl)-1,3-diethyl-7-methylxanthine] |  |  |  |  |  |  |  | > 100 | 68 | 34 | 3 | 24 | 19

— patent EP0590919A1, “Therapeutic agents for parkinson's disease” (KYOWA HAKKO KOGYO CO., LTD., priority 1992, dated 1994)
